Reference: patent US20230130823A1, “PROCESS FOR THE PRODUCTION OF ANTITUMOUR PHARMACEUTICAL COMPOSITIONS USING PUSH-PULL BUTADIENES, COMPOUNDS AND USES THEREOF” (ANHANGUERA EDUCACIONAL PARTICIPAÇÕES S/A, priority 2019, published 2023)
“And” between values parts separate entries of the source, which are not always exact repeats. Identical values can stand only once. Like-named read-outs stand apart in the source and are kept apart here.

How the values were obtained:
Colo205 [1] = test: In vitro cytotoxicity, Colo205 colon line; type: cell-based; settings: Homo sapiens, COLO 205
DLD1 = test: Antitumor activity, DLD1 line; type: cell-based; settings: Homo sapiens, DLD-1; DLD1, Table 3; read-out: CI50% (the source's name)
MIAP2 = test: In vitro cytotoxicity, MIAP2 pancreas line; type: cell-based; settings: Homo sapiens
CaCo2 = test: In vitro cytotoxicity, CaCo2 colon line; type: cell-based; settings: Homo sapiens, Caco-2
[2] = test system: lines of human carcinoma tested; test: In vitro cytotoxicity against the panel of human carcinoma lines
PANC1 = test: In vitro cytotoxicity, PANC1 pancreas line; type: cell-based; settings: Homo sapiens, PANC-1
HT-29 = test: In vitro cytotoxicity, HT-29 colon line; type: cell-based; settings: Homo sapiens
BxPC3 = test: In vitro cytotoxicity, BxPC3 pancreas line; type: cell-based; settings: Homo sapiens, BXPC-3
SW620 = test: In vitro cytotoxicity, SW620 colon line; type: cell-based; settings: Homo sapiens, SW-620
CRO2B = test: In vitro cytotoxicity, CRO2B carcinoid line; type: cell-based; settings: Homo sapiens
[3] = test system: HUVEC (Normal human endothelial cell); test: Cytotoxicity, HUVEC normal cells
[4] = test system: FN-1 (Normal human fibroblast); test: Cytotoxicity, normal human fibroblasts; type: cell-based; settings: for CI50% Normal cells: FN-1
Description: Fragments of cutaneous biopsies from patients treated by the Dermatology Service of the Clinic Hospital of the Medicine School of USP were removed for routine diagnostic procedures and part of the surgical flap edge immersed in Eagle culture medium modified by Dulbecco's (DMEM, Sigma Chemical Co., St. Louis, Mo., USA) added of 10% fetal bovine serum (Cultilab Ltda., Campinas-SP), […] and 50 ng/ml amphotericin B at 4 C and kept at 4 C for a maximum of 16 hours.
The fragments were washed three times in the same solution, cut into fragments of approximately 1 mm^3 and transferred to 25 cm^2 culture flasks, kept at 37 C, humid atmosphere containing 5% CO2. Cell growth monitored daily, photo documented in inversion microscopy and culture medium exchanged every 2 or 3 days, according to cell metabolism.
After 7 days, the first change in the culture medium of the flasks was performed once cell growth started, the culture medium was renewed every three days. Plastic flasks were used for cultivation of 25 cm^2 of cultivated area, where more 3 ml of DME medium containing 10% fetal bovine serum and 1% of antibiotic-antimycotic solution will be added.
The cell viability test was performed to verify the effect of the various compounds on the various concentrations previously established: on the lines of tumor cells B16F10 and normal human fibroblasts. The MTT method consists of a cell viability test that measures the activity of mitochondrial dehydrogenase. MTT is a colorimetric method based on the capacity of living cells to reduce salt 3-(4,5-di-methylazole-2-IL)-2,5-diphenyl tetrazolium bromide in the formazan product (Mosmann, 1983). […]
The 96-well plate was read by the spectrophotometer (Spectra MAX-190) using the wavelength of 570 nm. The results were analyzed by absorbance of each well. The percentage of viability was obtained using the following formula: [(Absorbance of treated cells/Absorbance of untreated cells)×100]. […]

[5] = test system: SCC9 (squamous-cell carcinoma of the oral cavity); test: Cytotoxicity, SCC9 cells; type: cell-based; settings: Homo sapiens, SCC-9, read-out: CI50% tumor cells
[6] = test system: 4T1 (murine mammary carcinoma); test: Cytotoxicity, 4T1 cells; type: cell-based; settings: Mus musculus, read-out: CI50% tumor cells
[7] = test system: MCF-7 (human mammary adenocarcinoma); test: Cytotoxicity, MCF-7 cells; type: cell-based; settings: MCF7, read-out: CI50% tumor cells
[8] = test system: SCC25 (squamous-cell carcinoma of the oral cavity); test: Cytotoxicity, SCC25 cells; type: cell-based; settings: Homo sapiens, SCC-25, read-out: CI50% tumor cells
tumor cells line Colo205 = test: Colo205 cell count; type: cell-based; settings: compared to cells treated with culture medium only
Description: The compounds were tested for their ability to reduce the number of cells in the tumor, compared to cells treated with culture medium only. In Table 4, the results obtained are shown.

[9] = test system: murine melanoma cells B16F10; test: MTT cytotoxicity in B16F10 melanoma cells; type: cell-based; settings: Mus musculus, B16-F10; B16F10 melanoma, 24 hours of culture, MTT; read-out: CI50% (the source's name)
Description: The tumor line of murine melanoma B16F10 was donated by the Ludwig-Switzerland Institute. Adherent cell suspensions of B16F10 cells were obtained for all experimental procedures by treating culture flasks with trypsin 0.2% for 5 minutes and inactivated with 10% fetal bovine serum. The detached cells were centrifuged twice, resuspended in supplemented RPMI-1640 medium. The count was performed in Malassez chamber, and the cell concentration was adjusted in 5×10^5 cells/ml, in RPMI-1640 culture medium supplemented with 10% fetal bovine serum and 7 ug polymyxin-B (Sigma Chemical Company, St Louis Mo.-USA).
Cell viability was determined by the Trypan Blue exclusion test, being greater than 95% of viable cells. The cells were grown in plates with 96 well plate flat bottoms (Corning), at a concentration of 2×10^5 cells, maintained for 24 hours in a CO2 oven at 37° C. After this period, the plates were centrifuged for 5 minutes, at 2000 rpm at 4° C., the supernatant discarded and added different concentrations of the compounds, diluted in RPMI-1640 culture medium, supplemented and increased by 7 μg of Polymyxin-B (Sigma Chemical Company). After treatment with the various diluted compounds in complete culture medium, the cells were incubated with 0.5 mg/mL of MTT reactive.
The cell viability test was performed to verify the effect of the various compounds on the various concentrations previously established: on the lines of tumor cells B16F10 and normal human fibroblasts. The MTT method consists of a cell viability test that measures the activity of mitochondrial dehydrogenase. MTT is a colorimetric method based on the capacity of living cells to reduce salt 3-(4,5-di-methylazole-2-IL)-2,5-diphenyl tetrazolium bromide in the formazan product (Mosmann, 1983). After the cells plating (concentration of 1×10^4 per well of the culture plate) in RPMI-1640 medium and 10% SFB medium, they were maintained at 37° C. for periods of 24, 48, 72 and 96 hours. Four hours before the set time was completed, MTT 20 μL (Sigma) was added (final concentration of […]). The plates were kept in the oven for the remaining four hours. After the stipulated time, 180 μL of the supernatant were removed from each well and then added 150 μL of dimethyl sulfoxide (Sigma) homogenizing well for the complete dissolution of the salt crystals formed by the mitochondrial metabolism resulting in a staining.
The 96-well plate was read by the spectrophotometer (Spectra MAX-190) using the wavelength of 570 nm. The results were analyzed by absorbance of each well. The percentage of viability was obtained using the following formula: [(Absorbance of treated cells/Absorbance of untreated cells)×100]. The experiments were carried out in quadruplicate.
The samples of the compounds obtained by synthesis chemistry were diluted in DMSO solution at the final concentration of 10%.

Colo205 [10] = test: Analysis of the cell cycle phases, Colo205; type: cell-based
Description: The compounds of this family were also studied for the distribution of the population of tumor cells in the different phases of the cell cycle: quiescent cells, non-proliferating (G1/G0 phase), which present DNA/RNA synthesis capacity (S phase) and cell division cells (G2/M phase).

Colo205 [11] = test: Determination of apoptotic cells (subG1), Colo205, flow cytometry; type: cell-based; settings: sub-diploid DNA content
Description: Determination of Apoptotic Cells (subG1)-Colo205
In this experiment, the proportion of apoptotic cells was identified, that is, cells showing DNA content below normal (sub-diploid) in flow cytometry testing.

[12] = test system: HUVEC (Normal human endothelial cell)
NCIADR = test: Cytotoxicity, NCIADR multiple drug resistant ovary line; type: cell-based; settings: Homo sapiens, NCI/ADR-RES, read-out: CI50 (the source's name)
MCF7 = test: Cytotoxicity, MCF7 breast line; type: cell-based; settings: Homo sapiens; MCF7 (breast cancer); read-out: CI50 (the source's name)
NCI460 = test: Cytotoxicity, NCI460 lung line; type: cell-based; settings: Homo sapiens, NCI-460, read-out: CI50 (the source's name)
UACC62 = test: Cytotoxicity, UACC62 melanoma line; type: cell-based; settings: Homo sapiens, UACC-62, read-out: CI50 (the source's name)

O=CC=C(Cl)c1ccccc1OC(=O)c1ccccc1 [Compound 5, 3-Chloro-3-(2-benzoyloxy-phenyl)propenal]
IC50 (Colo205 [1]; Colo205, Table 3, read-out: CI50% (the source's name)): 149 µM
IC50 (DLD1): 127 µM
IC50 (MIAP2; MIAP2, Table 3, read-out: CI50% (the source's name)): 156 µM
IC50 (CaCo2; Caco2, Table 3, read-out: CI50% (the source's name)): 163 µM
cytotoxic activity relative to compound 6 ([2]; compared with compound 6): seven times lower
IC50 (PANC1; PANC1, Table 3, read-out: CI50% (the source's name)): 177 µM
IC50 (HT-29; HT-29, HT29, Table 3, read-out: CI50% (the source's name)): 92 µM
IC50 (BxPC3; BxPC3, Table 3, read-out: CI50% (the source's name)): 160 µM
IC50 (SW620; SW620, Table 3, read-out: CI50% (the source's name)): 134 µM
IC50 (CRO2B; Table 3, read-out: CI50% (the source's name)): 149 µM

COc1ccc(/C=C/C(Cl)=C/C=C(C(C)=O)C(C)=O)cc1OC [Compound 24, 3-((2Z,4E)-3-chloro-5-(3,4-dimethoxyphenyl)penta-2,4-dien-ylidene)pentane-2,4-dione]
CI50% Normal cells [3]: 114 µM
CI50% Normal cells [4]: 61.80 µM

COc1ccc(/C=C/C(Cl)=C/C=O)cc1OC [Compound 23, (4E)-3-chloro-5-(3,4-dimethoxyphenyl)penta-2,4-dienal]
IC50 [5]: 15 µM
IC50 [6]: 22.1 µM
CI50% Normal cells [3]: 30.1 µM
CI50% Normal cells [4]: 53.33 µM
IC50 [7]: 54.6 µM
IC50 [8]: 3.32 µM

N#CC(C#N)=C/C=C(\Cl)c1ccccc1OC(=O)c1ccccc1 [Compound 6, 2-(1-chloro-4,4-dicyano-buta-1,3-dienyl)phenyl Benzoate]
Relative number of cells (% ± standard deviation) (tumor cells line Colo205): 12.7 ± 0.339%
IC50 (Colo205 [1]; Colo205, colon, read-out: IC50): 16.4 µM
IC50 (MIAP2; MIAP2, pancreas, read-out: IC50): 4.47 µM
IC50 (CaCo2; CaCo2, colon, read-out: IC50): 9.25 µM
cytotoxic activity (in words) ([2]; tumor cell lines of human carcinoma tested): potent in vitro activity
activity against fibroblasts (in words) ([4]; fibroblasts): significant activity
IC50 [9]: 30.6 µg/mL and 91.6 µM
IC50 (PANC1; PANC1, pancreas, read-out: IC50): 57.3 µM
Cell cycle phase (%) G1/G0 (Colo205 [10]; G1/G0 phase): 64.3 ± 1.69%
Cell cycle phase (%) G2M (Colo205 [10]; G2/M phase): 16.0 ± 0.28%
Cell cycle phase (%) S (Colo205 [10]; S phase): 19.7 ± 1.48%
IC50 (HT-29; HT-29, colon, read-out: IC50): 4.47 µM
IC50 (BxPC3; BxPC3, pancreas, read-out: IC50): 27.7 µM
IC50 (SW620; SW620, colon, read-out: IC50): 13.4 µM
IC50 (CRO2B; carcinoid, read-out: IC50): 7.46 µM
Percentage of cells (apoptotic, subG1) (Colo205 [11]): 41.8 ± 0.141%

5-(chloro-2-(3,4-dimethoxybenzyl)-5-(4-ethynyl-2,3,4,6-benzil-β-D-galactopyranoside)-penta-2,4-dienonitrile [Compound 21A]
CI50% Normal cells [12]: 23.09 µM

CC(=O)c1ccccc1OCC=C(C)C [Compound 9, 2-(3-methylbut-2-enyl-oxyi)acetophenone]
IC50 (NCIADR): 39.2 µM
IC50 (MCF7): 122 µM
IC50 (NCI460): 122 µM
IC50 (UACC62): 220 µM

CC(=O)C(=C/C=C(\Cl)c1ccc(C#C[C@@H]2O[C@H](CO)[C@@H](O)[C@H](O)[C@@H]2O)cc1)C(C)=O [Compound 18B, 3-((Z)-3-chloro-3-(4-(2-((2S,3R,4R,5R)-tetrahydro-3,4,5-trihydroxy-6-(Hydroxymethy)-2H-pyran-2-il)ethynyl)phenyl)allilideno)pentano-2,4-dione]
IC50 [5]: 0.445 µM
IC50 [6]: 0.431 µM
CI50% Normal cells [3]: 0.293 µM
IC50 [8]: 0.453 µM
